Experimental data published in publication PMC6443933, “Antagonizing Retinoic Acid-Related-Orphan Receptor Gamma Activity Blocks the T Helper 17/Interleukin-17 Pathway Leading to Attenuated Pro-inflammatory Human Keratinocyte and Skin Responses” (Frontiers in Immunology, 2019).

Legend:
[1] = system: HUT78 T-cells stably expressing full-length eGFP-RORγt; assay: IL-17A / IL-2 production by RORγt transduced HUT78 T-cell line; format: cell-based, human
[2] = system: HaCaT keratinocytes; assay: IL-17-driven HaCaT keratinocyte responses (Th17 supernatants or spiked cytokines), qRT-PCR; format: cell-based, human; details: supernatants of Th17 cells treated with 10 μM vs 0.13 nM, 24 h
Procedure: The HaCaT keratinocyte cell line was purchased from AddexBio and was maintained in RPMI 1640 medium supplemented with Glutamax, Penicillin/Streptomycin (all from Gibco) and 10% FCS (PAA). Normal primary human epidermal keratinocytes (NHEKs) were purchased from Lonza and PromoCell, respectively. Cells were cultured in Keratinocyte basal growth medium (KBM; Lonza) containing KGM2 growth supplements including insulin, human epidermal growth factor, bovine pituitary extract, hydrocortisone, epinephrine, transferrin, and gentamicin/amphotericin B (Lonza). HaCaT cells were incubated in a 96-well-microtiter plate (2 × 10^4 cells/well) with Th17 cytokine-containing supernatants obtained from total CD4^+ T-cells that were polarized for 72 h in the presence of anti-CD3/CD28 antibodies and a Th17 polarization cocktail as described above. […] Cytokine concentrations in supernatants were determined from representative experiments and they contained approximately 150 pg/ml or 600 pg/ml of IL-17 in 10 μM or in 0.13 nM treated samples, respectively. The TNF-α concentration was similar in supernatants exposed to low or high Cpd A concentrations and was 4 ng/ml. To study the impact of the IL-17 cytokine, IL-17 in the supernatants and in the spike-in cocktails was neutralized by a 0.5 h pre-incubation with an IL-17-specific antibody [0.75 μg/ml; Secukinumab (Cosentyx®, Novartis)]. All cultures were incubated in triplicates and after a 24 h incubation period, HaCaT cells (6 × 10^4 cells/sample) and NHEKs (1 × 10^5 cells/sample) were harvested and further processed for qRT-PCR analysis.
Total RNA from human Th17 cells (6 × 10^5 cells), RORγt-RORE HUT78 cells (4 × 10^5 cells) and HaCaT cells (6 × 10^4 cells) was extracted using RNeasy kit including a DNAse I digestion step according to the manufacturer‘s protocol (Qiagen). Frozen skin biopsies (8 mm punches) were resuspended in RLT buffer (Qiagen) containing 1% β-mercaptoethanol and homogenized using a Precellys-Cryolys device (Bertin Instruments) according to the manufacturer's instructions. cDNAs were prepared with the High Capacity cDNA Reverse Transcription Kit (Applied Biosystems). Quantitative RT-PCR analysis was performed using a TaqManViiA7 (Applied Biosystems). All runs were accompanied by the internal control gene human β-glucoronidase (Gus) (431088E). The samples were run in triplicate or in hexaplicate and normalized to Gus using the ΔΔCt method to provide arbitrary units representing relative expression levels. The following Taqman probes were used for RT-PCR (Thermo Scientific): RORC (Hs01076112_m1), IL17A (Hs00936345_m1), IL22 (Hs01574154_m1), IL26 (Hs00218189_m1), IL23R (Hs00332759_m1), CCR6 (Hs00218189_m1), NFKBIZ (Hs00355476_m), DEFB4A (Hs00823638_m1), IL36G (Hs00219742_m1), and CCL20 (Hs00355476_m1).

[3] = system: RORγt; assay: Binding of transcription/co-factors to RORγt or RORE oligonucleotides after treatment (data not shown); format: cell-based
[4] = system: T1, RORγt binding to RORE DNA binding sites; assay: RORE oligonucleotide pull-down assay; format: cell-based, human; details: 10 μM, HUT78-RORγt nuclear extracts, anti-CD3/PMA 2 h, vs DMSO
T1 construct: HUT78 T-cells stably expressing full-length eGFP-RORγt; eGFP; expressed in transfected cells
Procedure: In order to detect RORγt binding to its cognate DNA binding sites, biotinylated oligonucleotide probes containing putative 4 × RORE or mutated-RORE DNA sequences were synthesized (Microsynth, Switzerland) and annealed in order to form a double stranded DNA probe. The probes contained the following sequences (where the bold nucleotides represent a putative RORγt binding site or the mutated form of the RORE):
Nuclear extracts originating from HUT78 cells stably expressing eGFP-RORγt were prepared as previously described ([45]). Briefly, cells were incubated with Cpd A (10 μM final concentration) for 0.5 h followed by a 2 h-stimulation period using CD3 antibody (2.5 μg/ml, clone OKT-3, BioXcell) plus PMA (8 ng/ml, Sigma). Nuclear lysates were generated using a nuclear extraction kit (Pierce, Thermo scientific), followed by a pre-clearing step with streptavidin-sepharose beads (GE healthcare Amersham) for 1 h at 4°C. The supernatants were incubated with biotinylated double-stranded RORE or with mutated RORE probes (10 nM final concentration) for 1 h at 4°C, followed by addition of a 50% slurry of streptavidin-sepharose beads for 1 h. The bound complexes were washed five times with 1 ml buffer consisting of 50 mM Tris-HCl, 1 mM EDTA, 1% NP-40, 150 mM NaCl and protease inhibitors (Roche). […]

SMILES: Cc1ccc(C(=O)Nc2cn3ccnc3c(CN3CCN(c4noc(C(C)(C)C)n4)[C@@H](C)C3)c2C)cn1 [Cpd A, (S)-N-(8-((4-(5-(tert-butyl)-1,2,4-oxadiazol-3-yl)-3-methylpiperazin-1-yl)methyl)-7-methylimidazo[1,2-a]pyridin-6-yl)-6-methylnicotinamide]
- IC50 ([1]; Homo sapiens, PMA plus anti-CD3, 48 h, ELISA): 27 nM
- IL-2 cytokine production ([1]; PMA plus anti-CD3, 48 h, ELISA): not affected
- attenuation of IL-17A production ([1]; concentration-dependent): complete attenuation
- IL-17 signature genes (NFKBIZ, DEFB4A, CCL20, IL36G) in HaCaT [2]: marked reduction
- binding of TAZ, steroid receptor co-activators, p300, HIF-1α, Runx to RORγt or RORE oligonucleotides [3]: remained intact
- RORγt association with the ROR elements [4]: still intact
